Test results published in ChEMBL document CHEMBL1201862, “PubChem BioAssay data set” (2004).
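Test compounds were applied to cells in 96-well plates for 48 hours at 5 doses. GI50 is the concentration that inhibits growth by half.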 Activity calls are given as the source filed them. No stated cut-off is given here; in the data, active = GI50 up to about 1.1 µM and inactive = higher.

How the values were obtained:
Experiment in all cases: NCI anticancer screen, dose series, 48 h
OVCAR-3 = tested on: OVCAR-3
HOP-62 = tested on: HOP-62
K562 = tested on: K562
RPMI-8226 = tested on: RPMI-8226
CAKI-1 = tested on: CAKI-1
A498 = tested on: A498
IGROV-1 = tested on: IGROV-1
LOX IMVI = tested on: LOX IMVI
HCT-15 = tested on: HCT-15
A549 = tested on: A549
U-251 = tested on: U-251
NCI-H460 = tested on: NCI-H460
Malme-3M = tested on: Malme-3M
MDA-MB-231 = tested on: MDA-MB-231
NCI-H522 = tested on: NCI-H522
SN12C = tested on: SN12C
SF-268 = tested on: SF-268
SK-OV-3 = tested on: SK-OV-3
SR = tested on: SR
HCC 2998 = tested on: HCC 2998

`CS(=O)(=O)Nc1ccc(N2Cc3c[nH]c4ccc5nccc2c5c34)cc1` was tested, and the GI50 (OVCAR-3) was 9.98 µM (inactive), the GI50 (HOP-62) was 17.5 µM (inactive) and the GI50 (K562) was 11.4 µM (inactive). For the same molecule, the GI50 (RPMI-8226) was 20.3 µM (inactive), the GI50 (CAKI-1) was 31.5 µM (inactive) and the GI50 (A498) was 23.2 µM (inactive). The GI50 (IGROV-1) was 22.2 µM (inactive), the GI50 (LOX IMVI) was 12.2 µM (inactive) and the GI50 (HCT-15) was greater than 100 µM. The GI50 (A549) was 33.4 µM (inactive), the GI50 (U-251) was 15.4 µM (inactive) and the GI50 (NCI-H460) was 19.4 µM (inactive). The GI50 (Malme-3M) was 4.54 µM (inactive), the GI50 (MDA-MB-231) was 13.6 µM (inactive) and the GI50 (NCI-H522) was 10.3 µM (inactive). The GI50 (SN12C) was 14 µM (inactive).
In the case of `Cc1ccc(C(=O)O/N=C2/CCCCC2CN(C)C)cc1` (stereo not given), the GI50 (OVCAR-3) was > 100 µM (inactive), the GI50 (SF-268) was > 10 µM (inactive) and the GI50 (HOP-62) was > 100 µM (inactive). For the same molecule, the GI50 (SK-OV-3) was > 100 µM (inactive), the GI50 (K562) was > 100 µM (inactive) and the GI50 (RPMI-8226) was > 100 µM (inactive). For the same molecule, the GI50 (CAKI-1) was > 100 µM (inactive), the GI50 (A498) was > 100 µM (inactive) and the GI50 (IGROV-1) was > 100 µM (inactive). For the same molecule, the GI50 (SR) was > 100 µM (inactive), the GI50 (LOX IMVI) was > 100 µM (inactive) and the GI50 (HCT-15) was greater than 100 µM. For the same molecule, the GI50 (A549) was > 100 µM (inactive), the GI50 (U-251) was > 100 µM (inactive) and the GI50 (NCI-H460) was > 100 µM (inactive). The GI50 (Malme-3M) was > 100 µM (inactive), the GI50 (HCC 2998) was > 100 µM (inactive) and the GI50 (NCI-H522) was > 100 µM (inactive). For the same molecule, the GI50 (SN12C) was > 100 µM (inactive).
`CSc1cnc2ccccc2c1Sc1c[nH]c2ccccc2c1=O` was tested, and the GI50 (OVCAR-3) was 5.22 µM (inactive), the GI50 (SF-268) was 17.3 µM (inactive) and the GI50 (HOP-62) was 12.2 µM (inactive). For the same molecule, the GI50 (SK-OV-3) was 3.51 µM (inactive), the GI50 (K562) was 3.46 µM (inactive) and the GI50 (RPMI-8226) was 6.65 µM (inactive). For the same molecule, the GI50 (A498) was 12.4 µM (inactive), the GI50 (IGROV-1) was 14.4 µM (inactive) and the GI50 (SR) was 3.96 µM (inactive). For the same molecule, the GI50 (LOX IMVI) was 11.5 µM (inactive), the GI50 (HCT-15) was 7.1 µM and the GI50 (A549) was 5.51 µM (inactive). For the same molecule, the GI50 (U-251) was 6.49 µM (inactive), the GI50 (NCI-H460) was 6.75 µM (inactive) and the GI50 (Malme-3M) was 6.55 µM (inactive). The GI50 (HCC 2998) was 12.9 µM (inactive), the GI50 (NCI-H522) was 1.93 µM (inactive) and the GI50 (SN12C) was 11.8 µM (inactive).
`COc1ccc(CNc2nc(NCc3ccc(OC)cc3)nc(NC(C)C)n2)cc1` was tested, and the GI50 (OVCAR-3) was 3.33 µM (inactive), the GI50 (SF-268) was 9.02 µM (inactive) and the GI50 (HOP-62) was 6.56 µM (inactive). The GI50 (SK-OV-3) was 93.3 µM (inactive), the GI50 (K562) was 6.98 µM (inactive) and the GI50 (RPMI-8226) was 1.94 µM (inactive). For the same molecule, the GI50 (CAKI-1) was 20.3 µM (inactive), the GI50 (A498) was 4.79 µM (inactive) and the GI50 (IGROV-1) was 7.53 µM (inactive). The GI50 (SR) was 3.84 µM (inactive), the GI50 (LOX IMVI) was 6.89 µM (inactive) and the GI50 (HCT-15) was 4.12 µM. For the same molecule, the GI50 (A549) was 6.24 µM (inactive), the GI50 (U-251) was 7.52 µM (inactive) and the GI50 (NCI-H460) was 3.66 µM (inactive). The GI50 (Malme-3M) was 5 µM (inactive), the GI50 (HCC 2998) was 28.6 µM (inactive) and the GI50 (NCI-H522) was 3.03 µM (inactive).
With `c1ccc2cc(-c3cc4ccccc4s3)ccc2c1` the GI50 (OVCAR-3) was > 100 µM (inactive), the GI50 (SF-268) was > 100 µM (inactive) and the GI50 (HOP-62) was > 100 µM (inactive). The GI50 (SK-OV-3) was 22.1 µM (inactive), the GI50 (K562) was > 100 µM (inactive) and the GI50 (RPMI-8226) was > 100 µM (inactive). For the same molecule, the GI50 (CAKI-1) was > 100 µM (inactive), the GI50 (A498) was > 100 µM (inactive) and the GI50 (IGROV-1) was > 100 µM (inactive). For the same molecule, the GI50 (SR) was > 100 µM (inactive), the GI50 (LOX IMVI) was > 100 µM (inactive) and the GI50 (HCT-15) was greater than 100 µM. For the same molecule, the GI50 (A549) was > 100 µM (inactive), the GI50 (U-251) was > 100 µM (inactive) and the GI50 (NCI-H460) was > 100 µM (inactive). For the same molecule, the GI50 (Malme-3M) was > 100 µM (inactive), the GI50 (HCC 2998) was > 100 µM (inactive) and the GI50 (NCI-H522) was > 100 µM (inactive). For the same molecule, the GI50 (SN12C) was > 100 µM (inactive).
With `COc1ccc(/C(Cl)=C/c2ccc(Cl)c(Cl)c2)cc1` the GI50 (SF-268) was 35.5 µM (inactive), the GI50 (HOP-62) was 27.5 µM (inactive) and the GI50 (SK-OV-3) was 37.8 µM (inactive). The GI50 (K562) was 35.1 µM (inactive), the GI50 (RPMI-8226) was 18.2 µM (inactive) and the GI50 (A498) was 24.9 µM (inactive). The GI50 (IGROV-1) was 38.1 µM (inactive), the GI50 (SR) was 18.9 µM (inactive) and the GI50 (HCT-15) was 23.1 µM. The GI50 (A549) was 22.4 µM (inactive), the GI50 (U-251) was 21.5 µM (inactive) and the GI50 (Malme-3M) was 20.9 µM (inactive). The GI50 (HCC 2998) was 19.8 µM (inactive), the GI50 (NCI-H522) was 16.3 µM (inactive) and the GI50 (SN12C) was 29.4 µM (inactive).
